The results in this text go back to patent US9034336B2, “Immunomodulators and immunomodulator conjugates” (Regents of the University of Minnesota, priority 2011, dated 2015).

Common to all, as to format: cell-based
One test concerns the target T1, human TLR7 (Homo sapiens, UniProt Q9NYK1).
T1 construct: host or cells: HEK (HEK293) cells with NF-kB-responsive SEAP reporter
T1 sequence (Q9NYK1 27-1049): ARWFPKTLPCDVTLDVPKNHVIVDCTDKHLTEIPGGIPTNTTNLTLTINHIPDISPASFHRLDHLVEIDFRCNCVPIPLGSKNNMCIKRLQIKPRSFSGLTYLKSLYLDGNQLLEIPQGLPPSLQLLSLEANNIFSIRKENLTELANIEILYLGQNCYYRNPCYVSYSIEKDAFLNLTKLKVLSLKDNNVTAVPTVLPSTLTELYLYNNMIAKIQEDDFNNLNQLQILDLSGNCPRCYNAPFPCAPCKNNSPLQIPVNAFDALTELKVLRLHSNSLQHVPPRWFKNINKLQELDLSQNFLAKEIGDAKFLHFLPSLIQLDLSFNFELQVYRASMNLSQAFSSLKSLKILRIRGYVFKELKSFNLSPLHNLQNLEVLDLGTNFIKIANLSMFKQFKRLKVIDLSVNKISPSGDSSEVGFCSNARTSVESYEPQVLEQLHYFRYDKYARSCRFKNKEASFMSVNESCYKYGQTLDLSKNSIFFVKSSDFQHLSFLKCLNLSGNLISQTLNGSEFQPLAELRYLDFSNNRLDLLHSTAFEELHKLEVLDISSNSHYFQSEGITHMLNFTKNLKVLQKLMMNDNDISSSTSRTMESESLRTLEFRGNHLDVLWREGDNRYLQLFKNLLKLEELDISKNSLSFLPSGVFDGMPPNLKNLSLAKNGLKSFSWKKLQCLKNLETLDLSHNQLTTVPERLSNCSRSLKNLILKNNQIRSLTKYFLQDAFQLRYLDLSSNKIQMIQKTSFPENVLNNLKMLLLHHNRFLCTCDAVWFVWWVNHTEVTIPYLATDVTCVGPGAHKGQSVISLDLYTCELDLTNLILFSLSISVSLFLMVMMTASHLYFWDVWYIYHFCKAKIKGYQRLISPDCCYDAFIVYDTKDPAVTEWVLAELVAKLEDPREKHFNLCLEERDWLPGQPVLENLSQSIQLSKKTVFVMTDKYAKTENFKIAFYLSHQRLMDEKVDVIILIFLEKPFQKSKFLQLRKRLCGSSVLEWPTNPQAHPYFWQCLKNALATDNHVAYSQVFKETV
The experiment in a line: TLR7/8-NF-κB reporter assay (HEK-TLR7, SEAP). To be noted: HEK-TLR7 cells, 24 hrs, read-out: EC50 of TLR7 (mean ± SD). As to the method:
(§1) Human embryonic kidney (HEK) cells that were stably transfected with human TLR7 or TLR8 and an NF-κB—responsive secreted embryonic alkaline phosphatase (SEAP) gene (HEK-TLR7/8) were purchased from InvivoGen (San Diego, Calif.). The procedure used to measure TLR7 or TLR8 agonist activity was conducted as described by Hood et al. (Hood J. D, et al., Human Vaccines, 2010, 6, 4, 322-335). Briefly, HEK-TLR7/8 cells were stimulated with 3.3 or 30 μM of compound in a 96-well plate in DMEM containing 10% FBS and 0.01% Normocin (InvivoGen) for 24 hrs. Twenty microliters of the supernatant from each well was incubated with Quanti-blue substrate solution (InvivoGen) at 37° C. for 1 hour and absorbance was read at 650 nm using a Synergy plate reader (Biotek, Winooski, Vt.).
In general terms: Reporter assays use an easily measured gene product as a stand-in for the process of interest.

Test [1] deals with human monocyte-derived dendritic cells (MoDC). Put plainly: Human MoDC inflammatory cytokines by cytometric bead assay. The method, then: 1. Dendritic cells were generated from peripheral blood monocytes as described (Brossart P, et al. Blood. 1998; 92: 4238-4247). In brief, CD14 positive monocytes were from a healthy human peripheral blood mononuclear cells (PBMC) obtained via isolation with Lymphocyte Separation Medium (Mediatech, Inc, Manassas, Va.) and after purification with CD14 microbeads from Miltenyi Biotec Inc (Aubun, Calif.). The CD14 positive monocytes (>95% CD14) were cultured into immature monocyte-derived dendritic cells (MoDC) by further 6 day culture with GM-CSF (100 ng/ml) and IL-4 (100 ng/ml)(R&D, MN). 2. 0.1 million of MoDC were plated into 96-well plate and stimulated for 48 hours with 5 different concentration of following TLRs: 412, 420, 421, 414 and 415 at concentration of 0, 0.325, 1.3, 5.2 and 20.8 nmol/ml in triplicate. In other experiments (FIGS. 34 and 35), fresh PBMC (not DC) were used as the responder cells to the indicated compounds and cytokines levels were measured by bead array according to the manufacture's protocol (BD biosciences).
The supernatant were harvested 48 hours after stimulation with TLRs. Inflammatory cytokines level was identified with CBA, following the producer's instruction (BD, San Jose, Calif.)

For a further test, the target named is T2, human TLR8 (Homo sapiens, UniProt Q9NR97).
T2 construct: host or cells: HEK (HEK293) cells with NF-kB-responsive SEAP reporter
T2 sequence (Q9NR97 27-1041): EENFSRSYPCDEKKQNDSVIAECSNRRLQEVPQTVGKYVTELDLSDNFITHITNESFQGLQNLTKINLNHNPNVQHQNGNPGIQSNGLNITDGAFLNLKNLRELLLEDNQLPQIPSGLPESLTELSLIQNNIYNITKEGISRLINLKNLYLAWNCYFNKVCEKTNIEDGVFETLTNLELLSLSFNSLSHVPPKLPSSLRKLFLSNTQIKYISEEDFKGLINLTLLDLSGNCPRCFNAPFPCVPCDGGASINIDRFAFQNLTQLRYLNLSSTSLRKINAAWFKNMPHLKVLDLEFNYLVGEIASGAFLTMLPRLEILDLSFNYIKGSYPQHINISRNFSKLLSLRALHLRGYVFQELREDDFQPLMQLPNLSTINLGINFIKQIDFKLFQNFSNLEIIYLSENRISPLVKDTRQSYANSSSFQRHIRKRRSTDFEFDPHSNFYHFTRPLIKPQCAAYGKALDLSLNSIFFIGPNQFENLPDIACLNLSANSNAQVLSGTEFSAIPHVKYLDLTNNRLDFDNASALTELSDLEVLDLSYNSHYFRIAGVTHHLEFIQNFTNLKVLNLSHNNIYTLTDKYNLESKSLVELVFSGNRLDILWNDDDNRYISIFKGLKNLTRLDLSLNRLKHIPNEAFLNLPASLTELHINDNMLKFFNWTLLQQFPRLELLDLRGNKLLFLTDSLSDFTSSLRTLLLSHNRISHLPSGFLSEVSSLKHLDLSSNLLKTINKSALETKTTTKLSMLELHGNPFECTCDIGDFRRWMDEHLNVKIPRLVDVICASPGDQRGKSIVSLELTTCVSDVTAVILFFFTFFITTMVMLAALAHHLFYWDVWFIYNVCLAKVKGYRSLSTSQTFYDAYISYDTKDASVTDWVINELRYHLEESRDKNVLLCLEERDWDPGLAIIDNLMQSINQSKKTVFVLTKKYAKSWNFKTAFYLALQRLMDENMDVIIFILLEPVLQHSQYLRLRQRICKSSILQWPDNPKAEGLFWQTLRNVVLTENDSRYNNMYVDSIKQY
Put plainly: TLR7/8-NF-κB reporter assay (HEK-TLR8, SEAP). To be noted: HEK-TLR8 cells, 24 hrs, read-out: EC50 of TLR8 (mean ± SD). As to the method:
as §1

One may read the EC50 as the concentration giving half of the maximal effect.

Entries after “also recorded” stand apart in the source; their conditions may differ.

Turning to `CCCCc1nc2c(N)nc3cc(C(=O)OC)ccc3c2n1CC(C)(C)O` [Compound 420, 4-Amino-2-butyl-1-(2-hydroxy-2-methylpropyl)-7-methoxycarbonyl-1H-imidazo[4,5-c]quinoline], the values for the EC50 at human TLR7 and at human TLR8 were 1.52 ± 0.07 µM and 49.6 ± 1.02 µM, respectively. The “IL-1β induction / secretion” value in test [1] (human MoDC (FIG. 11)) was “induction of IL-1β; also recorded: the only drug tested that caused appreciable IL-1b secretion”. The “production of inflammatory cytokines” value in test [1] (human MoDC, supernatant 48 hours after stimulation) is “higher production of “inflammatory cytokines”, compared to imiquimod (but less stronger than Resquimod)”.
